# Patent publication EP4710919A1, “INJECTION PREPARATION AND PREPARATION METHOD THEREFOR, AND COMPATIBLE MEDICINAL LIQUID AND PREPARATION METHOD THEREFOR” (Ascentawits Pharmaceuticals, Ltd., priority 2023, dated 2024)
# What was measured:
# Type in all cases: physicochemical
# [1] = Solubility of Compound A in single solvents (water, acidic and alkaline aqueous solutions, isopropanol, methanol) at 25°C
# Protocol: The solubility of Compound A in single solvents (water, acidic and alkaline aqueous solutions, isopropanol, and methanol) was investigated. Table 1: Solubility investigation of Compound A at 25°C
# [2] = Solubility of Compound A in single adjuvant solvents at 25°C (supersaturated solution, sampled every 2 hours); settings: organic solvent or mixture, thermodynamic from solid; for solubility at 0 h / solubility at 2 h / solubility at 4 h / solubility at 6 h: single solvent
# Protocol: In order to increase the concentration of the active pharmaceutical ingredient in the injection, the solubility of the active pharmaceutical ingredient in single adjuvants was investigated to screen for optimal solvents, hydrotropic agents, or solubilizers. The solubility test of Compound A in single solvents was conducted as follows: Each of the single solvents was taken, a certain amount of API (the compound of formula I) was added at 25°C and stirred, and the dissolution of the API in the solvent system was observed. If the dissolution was complete, additional API was added continuously until a supersaturated solution was obtained. Samples were taken every 2 hours, filtered and assayed for content. Table 2: Solubility data of Compound A in single solvents at 25°C
# [3] = Solubility of Compound A in formulations with different adjuvants, observations before and after treatment
# Text: Compound A and Compound AST-3424 are structurally similar (both are nitrobenzyl derivatives and linked to a DNA alkylating agent with an aziridine structure that can effectively kill tumor cells). In addition, by releasing the DNA alkylating agent with an aziridine structure in tumor tissues or cells that overexpress the AKR1C3 enzyme, both compounds enable targeted recognition and treatment of any of the tumor tissues or cells that overexpress […] 1C3 (AKR1C3), and achieve the purpose of killing the tumor tissues or cells. Therefore, based on the same formulation development strategy, the inventors designed and selected an injection formulation similar to that of Compound AST-3424 (the optimal formulation of AST-3424: 10 mg/ml Compound AST-3424 + 75% ethanol + 25% propylene glycol) for use in the formulation study of Compound A.
# In addition to the solvents used in the reference formulation of Compound AST-3424, absolute ethanol was employed as a commonly used and relatively safe non-aqueous solvent adjuvant for injection formulations. During the development of the product formulation, it was considered to add N,N-dimethylacetamide (DMA) or polyoxyethylene (35) castor oil (ELP) to improve solubility and facilitate the manufacturing convenience. […]
# [4] = Stability of Compound A in formulations with different adjuvants at 2-8°C (HPLC content, total impurities, moisture); settings: stored at 2-8°C for 10 days; all formulation solvent systems
# Protocol: For the aforementioned treated Formulations F1 to F4, their specific formulation information is as follows ("p": the formulation obtained by adding ELP to the formulations in Table 3): • F1p: 300 mg API, 7.5 g ELP, and absolute ethanol added to 30 ml; • F2-1p: 3 g propylene glycol, 300 mg API, 7.5 g ELP, and absolute ethanol added to 30 ml; • F2-2p: 9 g propylene glycol, 300 mg API, 7.5 g ELP, and absolute ethanol added to 30 ml; • F3-1p: 1.5 g glycerin, 300 mg API, 7.5 g ELP, and absolute ethanol added to 30 ml; • F3-2p: 4.5 g glycerin, 300 mg API, 7.5 g ELP, and absolute ethanol added to 30 ml; • F4-1: 3 g DMA, 300 mg API, and absolute ethanol added to 30 ml; • F4-2: 9 g DMA, 300 mg API, and absolute ethanol added to 30 ml; • F4-3: 15 g DMA, 300 mg API, and absolute ethanol added to 30 ml.
# The stability of Compound A in the aforementioned formulations was investigated. At the predetermined time points (Day 0, Day 5, Day 10), 1 ml samples were taken for HPLC analysis to detect the content, total impurities, and moisture, respectively. Table 4: Stability of Compound A in formulations with different adjuvants at 2-8°C
# [5] = Compatibility and stability study of ready-to-use intravenous injections (0.02 and 1.00 mg/ml in pH-adjusted 5% glucose injection); settings: after filtration, room temperature, indoor ambient lighting
# Protocol: In order to provide compatibility information for the injection of the compound of formula I (Compound A, API) and the compatibility solutions, it is necessary to investigate the short-term stability of the injection in 5% glucose injection, a commonly used intravenous diluent. Considering that the API is instable in acidic environments, the pH of the 5% glucose injection is first adjusted to 7.4 using a sodium bicarbonate solution.
# 1.0 ml of 5% sodium bicarbonate injection was added to 250 ml of 5% glucose injection to adjust the pH, and mixed homogeneously. At this point, the pH of the mixed solution was approximately 8.0.
# The Compound A injection (2 ml: 20 mg) was prepared with the pH-adjusted 5% glucose injection into a compatibility solution with a concentration of 0.02 mg/ml, and a compatibility solution with a concentration of 1.00 mg/ml.
# 0.501 ml of Compound A injection (2 ml: 20 mg) was added to a mixing bag containing 250 ml of 5% glucose injection (whose pH had been pre-adjusted using 5% sodium bicarbonate injection). The mixing bag was repeatedly inverted to ensure homogeneous mixing of the mixed solution before storage and sampling.
# 27.8 ml of Compound A injection (2 ml: 20 mg) was added to a mixing bag containing 250 ml of 5% glucose injection (whose pH had been pre-adjusted using 5% sodium bicarbonate injection). […]
# [6] = Chiral stability study of the concentrated Compound A injection (-20±5°C, HPLC contents of A-P1 and A-P2); settings: in its injection formulation
# Protocol: (§1) Compound A is a racemic mixture containing one chiral center. Its two isomers, named A-P1 and A-P2, can be obtained by resolving Compound A. During the formulation and compatibility studies, interconversion between the chiral isomers may affect the drug safety. Therefore, it is necessary to study the chiral stability of Compound A in both its injection formulation and the compatibility drug solution of the injection formulation.
# (§2) • (a) The concentrated injection formulation of Compound A (2 ml: 20 mg) was prepared according to the aforementioned confirmed Formulation F19 and its preparation method. • (b) The compatibility drug solution with a concentration of 1.00 mg/ml was prepared according to the process for preparing a compatibility solution as described in Section 5.1.
# For the injection formulation of Compound A (concentrated injection), the formulation was stored under light-protected, sealed conditions at -20±5°C. Samples were taken at different time points (0 month, 1 month, 3 months), and the contents of A-P1 and A-P2 were determined using the aforementioned HPLC method for stability evaluation.
# [7] = Chiral stability study of the 1.00 mg/ml compatibility drug solution of Compound A (room temperature, HPLC contents of A-P1 and A-P2); settings: in the compatibility solution of the injection formulation
# Protocol: as §1, §2
# For the 1.00 mg/ml compatibility drug solution (ready-to-use injection), the solution was stored at room temperature (25°C ± 2°C) under indoor ambient lighting. Samples were taken at different time points (0 h, 2 h, 4 h, 8 h and 24 h) and the contents of A-P1 and A-P2 were determined using the aforementioned HPLC method to evaluate chiral stability. Table 27: Chiral stability study of the concentrated Compound A injection
# [8] = Polyethylene glycol 400 (PEG 400)
# [9] = Polyoxyethylene (35) castor oil (ELP)
compound,measurement,setting,value
O=[N+]([O-])c1ccc(C(OP(=O)(N2CC2)N2CC2)C(F)(F)F)cc1Oc1ccc(-c2ccc(F)cc2)c(F)c1 (racemic) [Compound A],Solubility,"[1]; 0.1 mol/L HCl solution, 25°C",Practically insoluble
same,Solubility,"[1]; 0.1 mol/L NaOH solution, 25°C",Practically insoluble
same,Solubility,"[1]; Isopropanol, 25°C",Practically insoluble
same,Solubility,"[1]; Methanol, 25°C",Sparingly soluble
same,Solubility,"[1]; Water, 25°C",Practically insoluble
same,Solubility,"[1]; in water, and acidic and alkaline aqueous solutions",extremely low solubility
same,Solubility,"[2]; N,N-dimethylacetamide (single solvent), in N,N-dimethylacetamide",> 200 mg/mL
same,Solubility,"[2]; polyoxyethylene (35) castor oil (single solvent), in polyoxyethylene (35) castor oil",~20 mg/mL
same,solubility at 0 h,[2]; Ethanol,8.95 mg/mL
same,solubility at 2 h,[2]; Ethanol,9.09 mg/mL
same,solubility at 4 h,[2]; Ethanol,9.43 mg/mL
same,solubility at 6 h,[2]; Ethanol,9.28 mg/mL
same,solubility at 0 h,"[2]; N,N-Dimethylacetamide (DMA)",248 mg/mL
same,solubility at 2 h,"[2]; N,N-Dimethylacetamide (DMA)",251 mg/mL
same,solubility at 4 h,"[2]; N,N-Dimethylacetamide (DMA)",251 mg/mL
same,solubility at 6 h,"[2]; N,N-Dimethylacetamide (DMA)",251 mg/mL
same,solubility at 0 h,[2]; [8],12.2 mg/mL
same,solubility at 2 h,[2]; [8],11.2 mg/mL
same,solubility at 4 h,[2]; [8],15.3 mg/mL
same,solubility at 6 h,[2]; [8],16 mg/mL
same,solubility at 0 h,[2]; [9],18.6 mg/mL
same,solubility at 2 h,[2]; [9],20.7 mg/mL
same,solubility at 4 h,[2]; [9],20.7 mg/mL
same,solubility at 6 h,[2]; [9],21.3 mg/mL
same,dissolution of Compound A,"[3]; formulation prepared based on the formulation design of Compound AST-3424 (ethanol:propylene glycol 3:1, 300 mg in 30 ml)",cannot be completely dissolved
same,Solubility,[3]; mixed solvent of ethanol and propylene glycol,poorly soluble
same,"stability with respect to content, total impurities, and moisture",[4],remained relatively stable
same,"changes in traits, color and clarity of solution, osmotic pressure, pH value, content of Compound A, and related substances","[5]; 0.02 mg/ml compatibility solutions, within 8 hours",no significant changes
same,"changes in traits, color and clarity of solution, osmotic pressure, pH value, and content of Compound A","[5]; 1.00 mg/ml compatibility solutions, within 6 hours",no significant changes
same,chiral stability,[6],chirally stable
same,chiral stability,[7],chirally stable
